This passage reports GI50 results from patent US11999716B2, “WDR5 inhibitors and modulators” (priority 2018, dated 2024).

Like-named read-outs stand apart in the source and are kept apart here.

This assay concerns MV4:11 human cancer cell lines. The assay can be described thus: Cellular viability / anti-proliferative activity, CellTiter-Glo, 5 day protocol. The format is cell-based. The note with it: MV4:11 cells, 5 day incubation, CellTiter-Glo, mean of minimum two replicates, read-out: GI50 on cellular proliferation of MV4:11 human cancer cell lines. The method, boiled down:
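Compounds were tested over 22 two-fold dilutions starting at 30 μM in 0.3% DMSO, with 200 cells per well (7200 cells/mL). Viability was measured by CellTiter-Glo luminescence at day 5.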

In the case of `COc1cc(CN2CCc3c(cc(Cn4ccn(C)c4=N)cc3-c3cn(C)nc3C(F)(F)F)C2=O)cc(OC)c1` [Example 39, 2-(3,5-Dimethoxybenzyl)-7-((2-imino-3-methyl-2,3-dihydro-1H-imidazol-1-yl)methyl)-5-(1-methyl-3-(trifluoromethyl)-1H-pyrazol-4-yl)-3,4-dihydroisoquinolin-1(2H)-one], the GI50 (Homo sapiens, MV4-11, 120 h) was under 50 nM.

With `Cc1nccn1Cc1cc2c(c(-c3cn(C)nc3C(F)(F)F)c1)CCN(CC1CCCOC1)C2=O` (stereo not shown) [Example 167, 7-((2-Methyl-1H-imidazol-1-yl)methyl)-5-(1-methyl-3-(trifluoromethyl)-1H-pyrazol-4-yl)-2-((tetrahydro-2H-pyran-3-yl)methyl)-3,4-dihydroisoquinolin-1(2H)-one], the GI50 (Homo sapiens, MV4-11, 120 h) worked out at 3020 nM.

In the case of `Cc1cc([C@H](C)N2CCc3c(cc(Cn4ccn(C)c4=N)cc3-c3ccc(F)cc3C)C2=O)ccc1F` [Example 40, (S)-5-(4-Fluoro-2-methylphenyl)-2-(1-(4-fluoro-3-methylphenyl)ethyl)-7-((2-imino-3-methyl-2,3-dihydro-1H-imidazol-1-yl)methyl)-3,4-dihydroisoquinolin-1(2H)-one], the GI50 (Homo sapiens, MV4-11, 120 h) was under 50 nM. On the same count and under the same terms, the same measure for `COc1ccnc(CN2CCc3c(cc(Cn4ccoc4=N)cc3-c3cn(C)nc3C(F)(F)F)C2=O)c1` [Example 84, 7-((2-Iminooxazol-3(2H)-yl)methyl)-2-((4-methoxypyridin-2-yl)methyl)-5-(1-methyl-3-(trifluoromethyl)-1H-pyrazol-4-yl)-3,4-dihydroisoquinolin-1(2H)-one]: under 50 nM; for `COc1cc(CN2CCc3c(cc(Cn4ccn(C)c4=N)cc3-c3c(C)noc3C)C2=O)cc(OC)c1` [Example 76, 2-(3,5-Dimethoxybenzyl)-5-(3,5-dimethylisoxazol-4-yl)-7-((2-imino-3-methyl-2,3-dihydro-1H-imidazol-1-yl)methyl)-3,4-dihydroisoquinolin-1(2H)-one]: over 938 nM; for `C=Cc1cccc(CN2CCc3c(cc(Cn4ccnc4C)cc3-c3cn(C)nc3C(F)(F)F)C2=O)c1` [Example 235, 7-((2-Methyl-1H-imidazol-1-yl)methyl)-5-(1-methyl-3-(trifluoromethyl)-1H-pyrazol-4-yl)-2-(3-vinylbenzyl)-3,4-dihydroisoquinolin-1(2H)-one]: 199 nM. For the molecule `COc1ccnc([C@H](C)N2CCc3c(cc(Cn4ccnc4C)cc3-c3ccncc3C)C2=O)c1` [Example 224, (S)-2-(1-(4-Methoxypyridin-2-yl)ethyl)-7-((2-methyl-1H-imidazol-1-yl)methyl)-5-(3-methylpyridin-4-yl)-3,4-dihydroisoquinolin-1(2H)-one], for the setting “Homo sapiens, MV4-11, 120 h”, the GI50 was found to be 72 nM. Same read-out and setting: the same measure for `COc1ccnc([C@H](C)N2CCc3c(cc(Cn4ccoc4=N)cc3-c3cn(C)nc3C(F)(F)F)C2=O)c1` [Example 93, (S)-7-((2-Iminooxazol-3(2H)-yl)methyl)-2-(1-(4-methoxypyridin-2-yl)ethyl)-5-(1-methyl-3-(trifluoromethyl)-1H-pyrazol-4-yl)-3,4-dihydroisoquinolin-1(2H)-one]: under 50 nM. `Cc1nccn1Cc1cc2c(c(-c3cn(C)nc3C(F)(F)F)c1)CCN(Cc1cccc(Cl)c1)C2=O` [Example 226, 2-(3-Chlorobenzyl)-7-((2-methyl-1H-imidazol-1-yl)methyl)-5-(1-methyl-3-(trifluoromethyl)-1H-pyrazol-4-yl)-3,4-dihydroisoquinolin-1(2H)-one]: the GI50 (Homo sapiens, MV4-11, 120 h) was determined as 950 nM. Regarding `Cc1ccnc([C@H](C2CC2)N2CCc3c(cc(Cn4ccnc4)cc3-c3ccc(F)cc3C)C2=O)c1` [Example 184, (S)-7-((1H-Imidazol-1-yl)methyl)-2-(cyclopropyl(4-methylpyridin-2-yl)methyl)-5-(4-fluoro-2-methylphenyl)-3,4-dihydroisoquinolin-1(2H)-one], for the setting “Homo sapiens, MV4-11, 120 h”, the GI50 stood at 125 nM.

With `COc1ccnc(CN2CCc3c(cc(Cn4cc5n(c4=N)CCC5)cc3-c3cn(C)nc3C(F)(F)F)C2=O)c1` [Example 62, 7-((3-Imino-6,7-dihydro-3H-pyrrolo[1,2-c]imidazol-2(51/)-yl)methyl)-2-((4-methoxypyridin-2-yl)methyl)-5-(1-methyl-3-(trifluoromethyl)-1H-pyrazol-4-yl)-3,4-dihydroisoquinolin-1(2H)-one], for the setting “Homo sapiens, MV4-11, 120 h”, the GI50 worked out at 572 nM. Still for that read-out and setting: the same measure for `Cc1cc([C@H](C2CC2)N2CCc3c(cc(Cn4ccn(C)c4=N)cc3-c3cccnc3C(F)(F)F)C2=O)ccc1F` [Example 34, (S)-2-(Cyclopropyl(4-fluoro-3-methylphenyl)methyl)-7-((2-imino-3-methyl-2,3-dihydro-1H-imidazol-1-yl)methyl)-5-(2-(trifluoromethyl)pyridin-3-yl)-3,4-dihydroisoquinolin-1(2H)-one]: 215 nM; for `Cc1nccn1Cc1cc2c(c(-c3cn(C)nc3C(F)(F)F)c1)CCN(Cc1ccccn1)C2=O` [Example 180, 7-((2-Methyl-1H-imidazol-1-yl)methyl)-5-(1-methyl-3-(trifluoromethyl)-1H-pyrazol-4-yl)-2-(pyridin-2-ylmethyl)-3,4-dihydroisoquinolin-1(2H)-one]: 1590 nM; for `COc1cc(CN2CCCc3c(cc(Cn4ccn(C)c4=N)cc3-c3ccc(F)cc3C)C2=O)cc(OC)c1` [Example 140, 2-(3,5-Dimethoxybenzyl)-6-(4-fluoro-2-methylphenyl)-8-((2-imino-3-methyl-2,3-dihydro-1H-imidazol-1-yl)methyl)-2,3,4,5-tetrahydro-1H-benzo[c]azepin-1-one]: 200 nM. Still for that read-out and setting: then `COc1ccnc(CN2CCc3c(cc(CN4CCN(C5CC5)C4=N)cc3-c3cn(C)nc3C)C2=O)c1` [Example 46, 7-((3-Cyclopropyl-2-iminoimidazolidin-1-yl)methyl)-5-(1,3-dimethyl-1H-pyrazol-4-yl)-2-((4-methoxypyridin-2-yl)methyl)-3,4-dihydroisoquinolin-1(2H)-one], with 449 nM.

As for `CCc1ccnc(CN2CCc3c(cc(Cn4cc(C)nc4C)cc3-c3cn(CC)nc3C(F)(F)F)C2=O)c1` [Example 22, 7-((2,4-Dimethyl-1H-imidazol-1-yl)methyl)-5-(1-ethyl-3-(trifluoromethyl)-1H-pyrazol-4-yl)-2-((4-ethylpyridin-2-yl)methyl)-3,4-dihydroisoquinolin-1(2H)-one], the GI50 (Homo sapiens, MV4-11, 120 h) was 145 nM. Regarding `CCc1ccc(OC)c(CN2CCc3c(cc(Cn4ccnc4C)cc3-c3cn(C)nc3C(F)(F)F)C2=O)c1` [Example 217, 2-(5-Ethyl-2-methoxybenzyl)-7-((2-methyl-1H-imidazol-1-yl)methyl)-5-(1-methyl-3-(trifluoromethyl)-1H-pyrazol-4-yl)-3,4-dihydroisoquinolin-1(2H)-one], the GI50 (Homo sapiens, MV4-11, 120 h) was determined as 149 nM. For the molecule `Cc1ccnc([C@@H](C2CC2)N2CCc3c(cc(Cn4ccn(C)c4=N)cc3-c3ccc(F)cc3C)C2=O)c1` [Example 33, (R)-2-(Cyclopropyl(4-methylpyridin-2-yl)methyl)-5-(4-fluoro-2-methylphenyl)-7-((2-imino-3-methyl-2,3-dihydro-1H-imidazol-1-yl)methyl)-3,4-dihydroisoquinolin-1(2H)-one], the GI50 (Homo sapiens, MV4-11, 120 h) stood at 553 nM. Turning to `Cc1cc(CN2CCc3c(cc(Cn4ccnc4C)cc3-c3cn(C)nc3C(F)(F)F)C2=O)on1` [Example 190, 7-((2-Methyl-1H-imidazol-1-yl)methyl)-5-(1-methyl-3-(trifluoromethyl)-1H-pyrazol-4-yl)-2-((3-methylisoxazol-5-yl)methyl)-3,4-dihydroisoquinolin-1(2H)-one], the GI50 (Homo sapiens, MV4-11, 120 h) stood at 349 nM. As for `Cc1nnc(CN2CCc3c(cc(Cn4ccnc4C)cc3-c3cn(C)nc3C(F)(F)F)C2=O)o1` [Example 188, 2-((5-Methyl-1,3,4-oxadiazol-2-yl)methyl)-7-((2-methyl-1H-imidazol-1-yl)methyl)-5-(1-methyl-3-(trifluoromethyl)-1H-pyrazol-4-yl)-3,4-dihydroisoquinolin-1(2H)-one], where the note is “Homo sapiens, MV4-11, 120 h”, the GI50 stood at 730 nM. Consider `CCn1cc(-c2cc(Cn3ccn(C4CC4)c3=N)cc3c2CCN(Cc2cc(OC)ccn2)C3=O)c(C(F)(F)F)n1` [Example 58, 7-((3-Cyclopropyl-2-imino-2,3-dihydro-1H-imidazol-1-yl)methyl)-5-(1-ethyl-3-(trifluoromethyl)-1H-pyrazol-4-yl)-2-((4-methoxypyridin-2-yl)methyl)-3,4-dihydroisoquinolin-1(2H)-one], for which the GI50 (Homo sapiens, MV4-11, 120 h) came out at 54 nM.

Consider `Cc1cc([C@H](C)N2CCc3c(cc(Cn4ccnc4C)cc3-c3cn(C)nc3C)C2=O)ccc1F` [Example 146, (S)-5-(1,3-Dimethyl-1H-pyrazol-4-yl)-2-(1-(4-fluoro-3-methylphenyl)ethyl)-7-((2-methyl-1H-imidazol-1-yl)methyl)-3,4-dihydroisoquinolin-1(2H)-one], for which the GI50 (Homo sapiens, MV4-11, 120 h) is under 50 nM. `Cc1ccc2[nH]ncc2c1-c1cc(CN2CCc3c(cc(Cn4ccnc4C)cc3-c3cn(C)nc3C(F)(F)F)C2=O)cc(OC(F)(F)F)c1` [Example 220, 7-((2-Methyl-1H-imidazol-1-yl)methyl)-2-(3-(5-methyl-1H-indazol-4-yl)-5-(trifluoromethoxy)benzyl)-5-(1-methyl-3-(trifluoromethyl)-1H-pyrazol-4-yl)-3,4-dihydroisoquinolin-1(2H)-one]: for the setting “Homo sapiens, MV4-11, 120 h”, the GI50 came to 1940 nM.

Regarding `Cc1cc([C@H](C)N2CCc3c(cc(Cn4ccnc4)cc3-c3cn(C)nc3C(F)(F)F)C2=O)ncc1F` [Example 201, (S)-7-((1H-imidazol-1-yl)methyl)-2-(1-(5-fluoro-4-methylpyridin-2-yl)ethyl)-5-(1-methyl-3-(trifluoromethyl)-1H-pyrazol-4-yl)-3,4-dihydroisoquinolin-1(2H)-one], the GI50 was under 50 nM.

As to `Cc1cc(CN2CCc3c(cc(Cn4ccnc4C)cc3-c3cccnc3C)C2=O)ccc1Cl` [Example 7, 2-(4-Chloro-3-methylbenzyl)-7-((2-methyl-1H-imidazol-1-yl)methyl)-5-(2-methylpyridin-3-yl)-3,4-dihydroisoquinolin-1(2H)-one], the GI50 (Homo sapiens, MV4-11, 120 h) was 572 nM.
